Results on 2 compounds are retold here after patent publication US7369696B2, “Classification of cells into subpopulations using cell classifying data” (GE Healthcare UK Limited, priority 2003, dated 2008).

In this experiment the test system is U2OS cells (ATCC HTB-96) transfected with cyclin B1 promoter/D-box/CRS-GFP cell cycle reporter construct. Put plainly: Effect of cell cycle blocking agents on GFP fluorescence from cell cycle phase marker, transiently transfected cells. It counts as cell-based. The conditions noted are these: U2OS cells 24 hours after transfection, exposed to blocker for a further 24 hours; confocal scanning imager with automated image analysis; control = culture media alone. Here is the method: U2OS cells (ATCC HTB-96) were cultured in wells of a 96 well microtitre plate. Cells were transfected with a cell cycle reporter construct prepared according to Example 1, comprising a cyclin B1 promoter operably linked to sequences encoding the cyclin B1 D-box, the cyclin B1 CRS, and GFP in a pCORON4004 vector (Amersham Biosciences) using Fugene 6 (Roche) as the transfection agent.
Following 24 hours of culture, cells were exposed to the specific cell cycle blockers mimosine (blocks at G1/S phase boundary) or demecolcine (blocks in M phase). Control cells were exposed to culture media alone.
Cells were incubated for a further 24 hours and then analysed for nuclear GFP expression using a confocal scanning imager with automated image analysis (IN Cell Analysis System, Amersham Biosciences).

With `CN[C@H]1CCc2cc(OC)c(OC)c(OC)c2-c2ccc(OC)c(=O)cc21` [demecolcine], the “nuclear GFP expression (fluorescence) compared to control cells” value is “increased fluorescence compared to control cells”. Next, `NC(Cn1ccc(=O)c(O)c1)C(=O)O` (centres unmarked) [mimosine]: “decreased fluorescence compared to control cells”.
